Measurements published in ChEMBL document CHEMBL1201862, “PubChem BioAssay data set” (2004).
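48-hour exposure; five concentrations; linearly interpolated endpoints. GI50 marks 50% less growth.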 Active and inactive are the calls of the source. Cut-off read from the data, not from the text of the source: active = GI50 up to about 1.1 µM and inactive = higher.

Tests used:
Assay in all cases: inhibition of tumour cell growth, NCI panel, 48 h
IGROV-1 = system: IGROV-1
RXF 393 = system: RXF 393
NCI-H23 = system: NCI-H23
UO-31 = system: UO-31
SNB-19 = system: SNB-19
HCT-116 = system: HCT-116
Malme-3M = system: Malme-3M
RPMI-8226 = system: RPMI-8226
SR = system: SR
SK-MEL-2 = system: SK-MEL-2
KM12 = system: KM12
COLO 205 = system: COLO 205
SW-620 = system: SW-620
NCI-H460 = system: NCI-H460
SN12C = system: SN12C
UACC-257 = system: UACC-257
T47D = system: T47D
SK-OV-3 = system: SK-OV-3
SF-539 = system: SF-539
SF-268 = system: SF-268

Measured: GI50

COc1ccc2c(C)cc(C)nc2n1
inactive: IGROV-1 > 100 µM | RXF 393 > 100 µM | NCI-H23 > 100 µM | UO-31 > 100 µM | SNB-19 > 100 µM | HCT-116 > 100 µM | Malme-3M > 100 µM | RPMI-8226 > 100 µM | SR > 100 µM | SK-MEL-2 > 100 µM | KM12 > 100 µM | COLO 205 > 100 µM | SW-620 > 100 µM | NCI-H460 > 100 µM | SN12C > 100 µM | UACC-257 > 100 µM | T47D > 100 µM | SK-OV-3 > 100 µM

O=C1Oc2ccccc2N/C1=C/C(=O)c1ccc(Cl)cc1
inactive: IGROV-1 > 100 µM | RXF 393 > 100 µM | NCI-H23 > 100 µM | SF-539 46.9 µM | UO-31 73.5 µM | SNB-19 > 100 µM | HCT-116 62.5 µM | Malme-3M > 100 µM | SR 39.4 µM | SK-MEL-2 > 100 µM | KM12 > 100 µM | COLO 205 > 100 µM | SF-268 > 100 µM | NCI-H460 > 100 µM | SN12C > 100 µM | UACC-257 > 100 µM | T47D 47.5 µM | SK-OV-3 > 100 µM

CN(CC(=O)O)c1ccc(/C=C/c2ccnc3ccccc23)cc1
inactive: IGROV-1 13.9 µM | RXF 393 14.8 µM | NCI-H23 33.3 µM | SF-539 27.9 µM | UO-31 15.7 µM | SNB-19 30.1 µM | HCT-116 23.8 µM | RPMI-8226 13.3 µM | SR 6.93 µM | SK-MEL-2 18.8 µM | KM12 13.2 µM | COLO 205 16 µM | SF-268 19.1 µM | SW-620 29.4 µM | NCI-H460 21.4 µM | SN12C 25.5 µM | UACC-257 25.4 µM | T47D 20.2 µM | SK-OV-3 28.9 µM

O=C1OCC2OC(=O)c3cc(O)c(O)c(O)c3-c3c(O)c(O)c(O)c4c3C(=O)OC(C2OC(=O)c2cc(O)c(O)c(O)c2-c2c1cc(O)c(O)c2O)C1OC(=O)c2c-4c(O)c(O)c(O)c2[C@@H]1C(O)C(O)C(O)C(O)CO (stereo partly drawn)
inactive: IGROV-1 20 µM | RXF 393 19.3 µM | NCI-H23 19.2 µM | UO-31 17.8 µM | SNB-19 46 µM | HCT-116 16.2 µM | Malme-3M 18.1 µM | RPMI-8226 29 µM | SR 22.5 µM | SK-MEL-2 21.6 µM | KM12 22 µM | COLO 205 15.7 µM | SF-268 21.5 µM | SW-620 19.5 µM | NCI-H460 17.6 µM | SN12C 16 µM | UACC-257 19.4 µM | T47D 19.1 µM | SK-OV-3 27.4 µM

CCOC(=O)CN1C(=O)c2c(NC(=O)C(=O)O)cccc2S1(=O)=O
inactive: IGROV-1 > 100 µM | RXF 393 > 100 µM | NCI-H23 > 100 µM | UO-31 > 100 µM | SNB-19 > 100 µM | HCT-116 > 100 µM | Malme-3M > 100 µM | RPMI-8226 > 100 µM | SR > 100 µM | SK-MEL-2 > 100 µM | KM12 > 100 µM | COLO 205 > 100 µM | SF-268 > 100 µM | SW-620 > 100 µM | NCI-H460 > 100 µM | SN12C > 100 µM | UACC-257 > 100 µM | T47D > 100 µM | SK-OV-3 > 100 µM

COC1(OC)C2C=CC1C([C@](C)(N)CO)C2 (stereo partly drawn)
inactive: IGROV-1 > 100 µM | RXF 393 > 100 µM | NCI-H23 > 100 µM | SF-539 > 100 µM | UO-31 > 100 µM | SNB-19 > 100 µM | HCT-116 > 100 µM | Malme-3M > 100 µM | SR > 100 µM | KM12 > 100 µM | COLO 205 > 100 µM | SF-268 > 100 µM | SW-620 > 100 µM | NCI-H460 > 100 µM | SN12C > 100 µM | UACC-257 > 100 µM | T47D > 100 µM | SK-OV-3 > 100 µM

O=S(=O)(O)c1ccc(Nc2ccnc3cc(Cl)ccc23)cc1
inactive: IGROV-1 > 100 µM | RXF 393 > 100 µM | NCI-H23 > 100 µM | SF-539 > 100 µM | UO-31 > 100 µM | SNB-19 > 100 µM | HCT-116 > 100 µM | Malme-3M > 100 µM | RPMI-8226 > 100 µM | SR > 100 µM | SK-MEL-2 > 100 µM | KM12 > 100 µM | COLO 205 > 100 µM | SF-268 > 100 µM | SW-620 > 100 µM | SN12C > 100 µM | UACC-257 > 100 µM | T47D > 100 µM | SK-OV-3 > 100 µM

O=C1CSC2(CC(/C=C/c3ccccc3)=NN2c2cccc(S(=O)(=O)O)c2)N1c1nc2ccccc2s1 (stereo not drawn)
inactive: IGROV-1 16.1 µM | RXF 393 22.1 µM | NCI-H23 22 µM | SF-539 39.7 µM | UO-31 18.5 µM | SNB-19 21.5 µM | HCT-116 36.8 µM | Malme-3M 69.7 µM | RPMI-8226 24.6 µM | SR 21.8 µM | SK-MEL-2 22.6 µM | KM12 19.4 µM | COLO 205 > 100 µM | SW-620 29.6 µM | NCI-H460 26.3 µM | SN12C 28.7 µM | UACC-257 60 µM | T47D 17.1 µM

C[Si](C)(C)C#CCOC=C1CC1
inactive: IGROV-1 70.8 µM | RXF 393 3.45 µM | NCI-H23 > 100 µM | SF-539 > 100 µM | UO-31 > 100 µM | SNB-19 > 100 µM | HCT-116 > 100 µM | Malme-3M > 100 µM | SR 52.5 µM | SK-MEL-2 > 100 µM | KM12 > 100 µM | COLO 205 > 100 µM | SF-268 > 100 µM | SW-620 > 100 µM | NCI-H460 > 100 µM | SN12C > 100 µM | UACC-257 > 100 µM | T47D > 100 µM | SK-OV-3 > 100 µM

CNc1ccc2nc(-c3ccc(OC(=O)N(C)C)cc3)cn2c1
inactive: IGROV-1 17.9 µM | RXF 393 13.3 µM | NCI-H23 21.2 µM | UO-31 21.1 µM | SNB-19 16.1 µM | HCT-116 18.3 µM | Malme-3M 54.3 µM | SR 19.1 µM | SK-MEL-2 14 µM | KM12 17.1 µM | COLO 205 17.1 µM | SF-268 16.5 µM | SW-620 22.8 µM | NCI-H460 17.5 µM | SN12C 14.1 µM | UACC-257 50.4 µM | T47D 22.2 µM | SK-OV-3 19 µM

N#CC12C(=O)N3C(=NC(c4ccco4)NC3c3ccco3)C1(C#N)C(c1ccco1)NC1=C2CCCC1 (stereo not drawn)
inactive: IGROV-1 > 100 µM | RXF 393 > 100 µM | NCI-H23 > 100 µM | UO-31 > 100 µM | SNB-19 > 100 µM | HCT-116 > 100 µM | Malme-3M > 100 µM | RPMI-8226 > 100 µM | SR > 100 µM | SK-MEL-2 > 100 µM | KM12 > 100 µM | COLO 205 > 100 µM | SF-268 > 100 µM | SW-620 > 100 µM | NCI-H460 > 100 µM | SN12C > 100 µM | UACC-257 > 100 µM | T47D > 100 µM | SK-OV-3 > 100 µM

CCOC(=O)c1cnc(N(C)C)nc1SC(=N)N
inactive: IGROV-1 > 100 µM | RXF 393 > 100 µM | NCI-H23 > 100 µM | SF-539 > 100 µM | SNB-19 > 100 µM | HCT-116 > 100 µM | Malme-3M > 100 µM | RPMI-8226 > 100 µM | SR 35.6 µM | SK-MEL-2 > 100 µM | KM12 > 100 µM | COLO 205 > 100 µM | SF-268 > 100 µM | SW-620 > 100 µM | NCI-H460 > 100 µM | SN12C > 100 µM | UACC-257 > 100 µM | T47D > 100 µM | SK-OV-3 > 100 µM

O=NN1CCNC1Cc1ccccc1 (stereo not drawn)
inactive: IGROV-1 > 100 µM | RXF 393 88.7 µM | NCI-H23 72.1 µM | SF-539 48.9 µM | UO-31 43.7 µM | SNB-19 35.3 µM | HCT-116 71.6 µM | Malme-3M > 100 µM | RPMI-8226 70 µM | SR 23.8 µM | KM12 > 100 µM | COLO 205 > 100 µM | SF-268 43.4 µM | SW-620 > 100 µM | NCI-H460 38.7 µM | SN12C 63 µM | UACC-257 > 100 µM | T47D 47.1 µM | SK-OV-3 75.2 µM

NC(CCCCNc1ccn(C2OC(CO)C(O)C2O)c(=O)n1)C(=O)O (stereo not drawn)
inactive: IGROV-1 65.8 µM | RXF 393 > 100 µM | SF-539 > 100 µM | UO-31 > 100 µM | SNB-19 > 100 µM | Malme-3M > 100 µM | RPMI-8226 > 100 µM | SR > 100 µM | SK-MEL-2 77.8 µM | KM12 > 100 µM | COLO 205 > 100 µM | SF-268 > 100 µM | SW-620 > 100 µM | NCI-H460 > 100 µM | SN12C > 100 µM | UACC-257 > 100 µM | T47D > 100 µM

OC[C@H]1CCCC1O (stereo partly drawn)
inactive: IGROV-1 > 100 µM | RXF 393 > 100 µM | NCI-H23 > 100 µM | SF-539 > 100 µM | UO-31 > 100 µM | SNB-19 > 100 µM | HCT-116 > 100 µM | Malme-3M > 100 µM | RPMI-8226 > 100 µM | SR > 100 µM | SK-MEL-2 > 100 µM | KM12 > 100 µM | COLO 205 > 100 µM | SF-268 > 100 µM | SW-620 > 100 µM | NCI-H460 > 100 µM | SN12C > 100 µM | UACC-257 > 100 µM | T47D > 100 µM
